Data taken from US8772498B2, “Alkylamine-substituted dicyanopyridine and amino acid ester prodrugs thereof” (Bayer Intellectual Property GmbH, priority 2009, dated 2014).

Legend:
[1] = target: T1, adenosine A1 receptor (Homo sapiens, UniProt P30542); experiment: Indirect determination of adenosine agonism by gene expression (luciferase), A1 cells; format: cell-based; conditions: CHO cells, luciferase readout, 1 μM forskolin
T1 construct: expressed in transfected cells; host or cells: CHO (Chinese Hamster Ovary)
T1 sequence (P30542 1-326): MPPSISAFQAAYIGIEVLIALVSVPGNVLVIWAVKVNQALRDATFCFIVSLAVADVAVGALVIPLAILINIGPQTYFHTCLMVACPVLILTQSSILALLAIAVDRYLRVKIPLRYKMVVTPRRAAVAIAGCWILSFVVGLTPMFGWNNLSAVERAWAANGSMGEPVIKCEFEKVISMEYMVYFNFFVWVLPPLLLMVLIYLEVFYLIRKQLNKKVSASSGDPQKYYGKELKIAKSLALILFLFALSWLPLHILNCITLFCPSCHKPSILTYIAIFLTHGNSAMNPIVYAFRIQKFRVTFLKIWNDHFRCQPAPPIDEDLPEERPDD
Excerpt: (§1) B-1. Indirect Determination of the Adenosine Agonism by Way of Gene Expression
(§2) Cells of the CHO (Chinese Hamster Ovary) permanent cell line are transfected stably with the cDNA for the adenosine receptor subtypes A1, A2a and A2b. The adenosine A1 receptors are coupled to the adenylate cyclase by way of G, proteins, while the adenosine A2a and A2b receptors are coupled by way of Gs proteins. In correspondence with this, the formation of cAMP in the cell is inhibited or stimulated, respectively. After that, expression of the luciferase is modulated by way of a cAMP-dependent promoter. The luciferase test is optimized, with the aim of high sensitivity and reproducibility, low variance and good suitability for implementation on a robot system, by varying several test parameters, such as cell density, duration of the growth phase and the test incubation, forskolin concentration and medium composition. The following test protocol is used for pharmacologically characterizing cells and for the robot-assisted substance screening:
(§3) The stock cultures are grown, at 37° C. and under 5% CO2, in DMEM/F12 medium containing 10% FCS (fetal calf serum) and in each case split 1:10 after 2-3 days. The test cultures are seeded in 384-well plates with 2000 cells per well and grown at 37° C. for approx. 48 hours. The medium is then replaced with a physiological sodium chloride solution (130 mM sodium chloride, 5 mM potassium chloride, 2 mM calcium chloride, 20 mM HEPES, 1 mM magnesium chloride hexahydrate, 5 mM sodium bicarbonate, pH 7.4). The substances to be tested, which are dissolved in DMSO, are pipetted into the test cultures (maximum final concentration of DMSO in the test mixture: 0.5%) in a dilution series of from 5×10^−11 M to 3×10^−6 M (final concentration). 10 minutes later, forskolin is added to the A1 cells and all the cultures are subsequently incubated at 37° C. for four hours. After that, 35 μl of a solution which is composed of 50% lysis reagent (30 mM disodium hydrogenphosphate, 10% glycerol, 3% TritonX100, 25 mM TrisHCl, 2 mM dithiotreitol (DTT), pH 7.8) and 50% luciferase substrate solution (2.5 mM ATP, 0.5 mM luciferin, 0.1 mM coenzyme A, 10 mM tricine, 1.35 mM magnesium sulfate, 15 mM DTT, pH 7.8) are added to the test cultures, which are shaken for approx. 1 minute and the luciferase activity is measured using a camera system. The ECK values are determined, i.e., the concentrations at which 50% of the luciferase answer is inhibited in the case of the A1 cell, and, respectively, 50% of the maximum stimulation with the corresponding substance is achieved in the case of the A2b and A2a cells.
(§4) Table 1 below lists the ECK values of representative working examples for the receptor stimulation on adenosine A1, A2a and A2b receptor subtypes: […]

[2] = target: T2, adenosine A2b receptor (Homo sapiens, UniProt P29275); experiment: Indirect determination of adenosine agonism by gene expression (luciferase), A2b cells; format: cell-based; conditions: CHO cells, luciferase readout
T2 construct: expressed in transfected cells; host or cells: CHO (Chinese Hamster Ovary)
T2 sequence (P29275 1-332): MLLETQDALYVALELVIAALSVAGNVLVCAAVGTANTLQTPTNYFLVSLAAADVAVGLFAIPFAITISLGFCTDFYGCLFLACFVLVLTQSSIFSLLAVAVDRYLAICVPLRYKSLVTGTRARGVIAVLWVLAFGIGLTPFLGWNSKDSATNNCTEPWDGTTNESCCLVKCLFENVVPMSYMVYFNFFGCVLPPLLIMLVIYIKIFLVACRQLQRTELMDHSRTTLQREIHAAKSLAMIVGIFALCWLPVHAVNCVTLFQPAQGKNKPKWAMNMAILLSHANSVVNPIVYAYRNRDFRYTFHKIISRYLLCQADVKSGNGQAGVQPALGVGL
Excerpt: as §1, §2, §3, §4

[3] = target: T3, adenosine A2a receptor (Homo sapiens, UniProt P29274); experiment: Indirect determination of adenosine agonism by gene expression (luciferase), A2a cells; format: cell-based; conditions: CHO cells, luciferase readout
T3 construct: expressed in transfected cells; host or cells: CHO (Chinese Hamster Ovary)
T3 sequence (P29274 whole entry): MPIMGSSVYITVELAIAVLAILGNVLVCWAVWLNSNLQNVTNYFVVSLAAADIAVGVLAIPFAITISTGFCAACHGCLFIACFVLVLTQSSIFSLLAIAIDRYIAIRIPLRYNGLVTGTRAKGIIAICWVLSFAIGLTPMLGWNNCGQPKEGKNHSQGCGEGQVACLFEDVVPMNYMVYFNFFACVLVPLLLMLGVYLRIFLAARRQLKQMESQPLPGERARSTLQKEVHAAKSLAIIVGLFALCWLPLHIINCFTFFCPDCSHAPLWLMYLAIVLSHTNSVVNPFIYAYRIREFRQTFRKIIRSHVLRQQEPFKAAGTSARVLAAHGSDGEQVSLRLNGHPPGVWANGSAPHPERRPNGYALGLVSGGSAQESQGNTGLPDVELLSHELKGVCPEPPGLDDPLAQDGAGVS
Excerpt: as §1, §2, §3, §4

[4] = tested on: mice (strain: CD1); experiment: Locomotor action in the treadmill experiment; format: in vivo; conditions: oral
Excerpt: B-7. Test of Adenosine A1 Receptor Agonists on Locomotor Action in the Treadmill Experiment To determine the action of adenosine A1 receptor agonists on locomotor function, the running behavior of mice (strain: CD1) in treadmills (M. Weber et al., Psychopharmacology 2008, in print) is examined. To get the mice accustomed to voluntary use of the treadmill, 2-3 weeks prior to the start of the experiment the animals are isolated in cages with a treadmill and trained. 2 weeks prior to the start of the experiment, the movements of the mice in the treadmill are recorded by a photo cell using a computer, and various running parameters such as, for example, the distance run in a day, the individual distances covered, and also their distribution over the day are determined. According to their natural running behavior, the animals are randomized into groups (8-12 animals) (control group and 1—a plurality of substance groups). After the initial 2-week phase, the animals are treated orally with the substances to be tested. Here, single doses or else increasing dosages (for example 0.3-1-3-10-30 mg/kg) are administered. The substances are tested in two independent experiments. Between 2 experiments, there are at least 3 days where the animals are not administered any substances. The running behavior of the animals is observed and recorded for 24 hours after administration. Evaluation of the running intervals and the total distance covered takes place over a period of several hours during the main activity period of the mice. Effects are stated in percent of the control.

[5] = tested on: spontaneously hypertensive rats; experiment: Measurement of blood pressure and heart rate on awake rats (telemetry); format: in vivo; conditions: maximum reduction in heart rate, oral administration of 3 mg/kg, awake SH rats
Procedure: B-5. Measurement of Blood Pressure and Heart Rate
Awake spontaneously hypertensive rats (SH-Ratten) carrying an internal transmitter capable of measuring permanently both blood pressure and heart rate (telemetric monitoring of hemodynamic parameters) and sitting in a cage fitted with motion sensors are orally administered test substances in various dosages. Blood pressure and heart rate and changes thereof, and also the movements and the activity of the animals are then recorded and evaluated for 24 hours.

[6] = Determination of the solubility in 5% strength aqueous dextrose solution; format: physicochemical; conditions: result in words
Procedure: B-8. Determination of Solubility, Stability and Liberation Behavior a) Determination of the Solubility:
The test substance is suspended in 5% strength aqueous dextrose solution. This suspension is shaken at room temperature for 24 h. After ultracentrifugation at 224 000 g for 30 min, the supernatant is diluted with DMSO and analyzed by HPLC. A two-point calibration plot of the test compound in DMSO is used for quantification.
Agilent 1100 with DAD (G1315A), quat. pump (G1311A), autosampler CTC HTS PAL, degasser (G1322A) and column thermostat (G1316A); column: Phenomenex Gemini C18, 5 μm, 50 mm×2 mm; temperature: 40° C.; eluent A: water/phosphoric acid pH 2; eluent B: acetonitrile; flow rate: 0.7 ml/min; gradient: 0-0.5 min 85% A, 15% B; ramp: 0.5-3 min 10% A, 90% B; 3-3.5 min 10% A, 90% B; ramp: 3.5-4 min 85% A, 15% B; 4-5 min 85% A, 15% B.
Agilent 1100 with DAD (G1315A), quat. pump (G1311A), autosampler CTC HTS PAL, degasser (G1322A) and column thermostat (G1316A); column: VDSoptilab Kromasil 100 C18, 3.5 μm, 60 mm×2.1 mm; temperature: 30° C.; eluent A: water+5 ml perchloric acid/I; eluent B: acetonitrile; flow rate: 0.75 ml/min; gradient: 0-0.5 min 98% A, 2% B; ramp: 0.5-4.5 min 10% A, 90% B; 4.5-6 min 10% A, 90% B; ramp: 6.5-6.7 min 98% A, 2% B; 6.7-7.5 min 98% A, 2% B.

| SMILES | EC50 [1] [nM] | EC50 [2] [nM] | EC50 [3] [nM] | Reduction of the total distance run by 1 mg/kg [4] [%] | Heart rate reduction [5] [%] | Solubility of the active substance [6] |
| --- | --- | --- | --- | --- | --- | --- |
| CCNc1nc(SCc2csc(-c3ccc(Cl)cc3)n2)c(C#N)c(-c2ccc(OCCO)cc2)c1C#N [Example 3, 2-({(2-(4-Chlorophenyl)-1,3-thiazol-4-yl)methyl}sulfanyl)-6-(ethylamino)-4-(4-(2-hydroxy-ethoxy)phenyl)pyridine-3,5-dicarbonitrile] | 0.3 | 138 | 282 | – | – | – |
| N#Cc1c(NC2CC2)nc(SCc2csc(-c3ccc(Cl)cc3)n2)c(C#N)c1-c1ccc(OCCO)cc1 [Example 9] | 0.7 | 231 | 281 | – | – | – |
| N#Cc1c(NCCF)nc(SCc2csc(-c3ccc(Cl)cc3)n2)c(C#N)c1-c1ccc(OCCO)cc1 [Example 33, 2-({(2-(4-Chlorophenyl)-1,3-thiazol-4-yl)methyl}sulfanyl)-6-((2-fluoroethyl)amino)-4-(4-(2-hydroxyethoxy)phenyl)pyridine-3,5-dicarbonitrile] | 0.05 | 900 | 27 | 24 | – | – |
| COC1CCN(c2nc(SCc3csc(-c4ccc(Cl)cc4)n3)c(C#N)c(-c3ccc(OCCO)cc3)c2C#N)CC1 [Example 24, 2-({(2-(4-chlorophenyl)-1,3-thiazol-4-yl)methyl}sulfanyl)-4-(4-(2-hydroxyethoxy)phenyl)-6-(4-methoxypiperidin-1-yl)pyridine-3,5-dicarbonitrile] | 0.6 | 675 | 287 | – | – | – |
| N#Cc1c(SCc2csc(-c3ccc(Cl)cc3)n2)nc(N2CCCCC2)c(C#N)c1-c1ccc(OCCO)cc1 [Example 13] | – | – | – | 0 | – | – |
| CCN(C)c1nc(SCc2csc(-c3ccc(Cl)cc3)n2)c(C#N)c(-c2ccc(OCCO)cc2)c1C#N [Example 5, 2-({(2-(4-Chlorophenyl)-1,3-thiazol-4-yl)methyl}sulfanyl)-6-(ethyl(methyl)amino)-4-(4-(2-hydroxyethoxy)phenyl)pyridine-3,5-dicarbonitrile] | 0.5 | 150 | 315 | – | – | – |
| COCCN(C)c1nc(SCc2csc(-c3ccc(Cl)cc3)n2)c(C#N)c(-c2ccc(OCCO)cc2)c1C#N [Example 21, 2-({(2-(4-chlorophenyl)-1,3-thiazol-4-yl)methyl}sulfanyl)-4-(4-(2-hydroxyethoxy)phenyl)-6-((2-methoxyethyl)(methyl)amino)pyridine-3,5-dicarbonitrile] | 0.9 | – | 743 | 7.5 | – | – |
| N#Cc1c(SCc2csc(-c3ccc(Cl)cc3)n2)nc(N2CCC(F)(F)C2)c(C#N)c1-c1ccc(OCCO)cc1 [Example 26, 2-({(2-(4-Chlorophenyl)-1,3-thiazol-4-yl)methyl}sulfanyl)-6-(3,3-difluoropyrrolidin-1-yl)-4-(4-(2-hydroxyethoxy)phenyl)pyridine-3,5-dicarbonitrile] | 0.5 | 1000 | – | – | – | – |
| N#Cc1c(SCc2csc(-c3ccc(Cl)cc3)n2)nc(N2CCCC2)c(C#N)c1-c1ccc(OCCO)cc1 [Example 1] | 0.1 | 80 | 673 | 0 | −20 | below the detection limit |
| CNc1nc(SCc2csc(-c3ccc(Cl)cc3)n2)c(C#N)c(-c2ccc(OCCO)cc2)c1C#N [Example 2, 2-({(2-(4-Chlorophenyl)-1,3-thiazol-4-yl)methyl}sulfanyl)-4-(4-(2-hydroxyethoxy)phenyl)-6-(methylamino)pyridine-3,5-dicarbonitrile] | – | – | – | – | −45 | below the detection limit |
